Reference: ChEMBL document CHEMBL4725309, “Potent, non-covalent reversible BTK inhibitors with 8-amino-imidazo[1,5-a]pyrazine core featuring 3-position bicyclic ring substitutes” (Bioorg Med Chem Lett, 2020)
pIC50: −log10 of the molar value.

What was measured:
[1] = target: T1, Tyrosine-protein kinase BTK (Homo sapiens, UniProt Q06187); assay: Inhibition of BTK in human PBMC assessed as reduction in cell surface CD69 expression preincubated for 1 hr followed by stimulation with goat anti-human IgM F(ab')2 for 18 hrs by immunostaining analysis; type: tissue-based
T1 sequence (Q06187 whole entry): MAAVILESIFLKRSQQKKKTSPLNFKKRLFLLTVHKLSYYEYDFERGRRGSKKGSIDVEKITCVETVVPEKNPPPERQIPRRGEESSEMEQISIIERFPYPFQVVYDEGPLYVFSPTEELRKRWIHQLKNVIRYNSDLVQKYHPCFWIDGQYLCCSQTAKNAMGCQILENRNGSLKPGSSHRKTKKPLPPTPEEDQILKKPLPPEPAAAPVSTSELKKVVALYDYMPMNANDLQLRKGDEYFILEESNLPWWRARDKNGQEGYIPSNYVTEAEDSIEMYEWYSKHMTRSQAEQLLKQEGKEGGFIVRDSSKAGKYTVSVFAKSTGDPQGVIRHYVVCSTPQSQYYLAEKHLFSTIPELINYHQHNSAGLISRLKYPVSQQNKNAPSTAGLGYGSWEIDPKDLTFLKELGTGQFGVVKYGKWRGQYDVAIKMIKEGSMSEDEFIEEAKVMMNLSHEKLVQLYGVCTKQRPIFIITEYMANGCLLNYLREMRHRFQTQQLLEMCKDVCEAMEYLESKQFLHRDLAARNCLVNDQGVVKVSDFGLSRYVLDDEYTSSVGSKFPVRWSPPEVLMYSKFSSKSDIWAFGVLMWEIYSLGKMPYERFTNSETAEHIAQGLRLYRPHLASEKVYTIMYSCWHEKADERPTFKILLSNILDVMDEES

[2] = target: T1, Tyrosine-protein kinase BTK; assay: Inhibition of BTK in human whole blood assessed as reduction in cell surface CD69 expression preincubated for 1 hr followed by stimulation with anti-CD79b for 3 hrs by immunostaining analysis; type: tissue-based
[3] = target: T1, Tyrosine-protein kinase BTK; assay: Inhibition of recombinant full length BTK (unknown origin) expressed in baculovirus infected Sf9 cells using Biotin-EQEDEPEGDYFEWLE-NH2 peptide as substrate incubated for 60 mins followed by further incubation with substrate and ATP for 120 mins by TR-FRET assay
[4] = Volume of distribution at steady state in Wistar Han rat at 2 mg/kg, iv; type: ADME, organism-based; details: in vivo, read-out: Vdss
[5] = Oral bioavailability in Wistar Han rat at 5 mg/kg; type: ADME, organism-based; details: Wistar Han, in vivo
[6] = Tmax in Wistar Han rat at 5 mg/kg, po; type: ADME, organism-based; details: in vivo
[7] = AUC in Wistar Han rat at 2 mg/kg, iv; type: ADME, organism-based; parameters: dose 2 mg/kg; details: in vivo
[8] = Clearance in Wistar Han rat at 2 mg/kg, iv; type: ADME, organism-based; details: in vivo
[9] = Cmax in Wistar Han rat at 5 mg/kg, po; type: ADME, organism-based; parameters: route oral, dose 5 mg/kg; details: in vivo
[10] = Half life in Wistar Han rat at 2 mg/kg, iv; type: ADME, organism-based; details: in vivo

| SMILES | pIC50 [1] | pIC50 [3] | further results |
| --- | --- | --- | --- |
| N#Cc1cc(C(=O)Nc2cc(C(F)(F)F)ccn2)ccc1-c1nc([C@@H]2CC[C@H]3CCC(=O)N3C2)n2ccnc(N)c12 | 6.57 |  |  |
| Nc1nccn2c([C@@H]3CC[C@H]4CCC(=O)N4C3)nc(-c3ccc(C(=O)Nc4cc(C(F)(F)F)ccn4)cc3C(=O)O)c12 | 5.85 |  |  |
| NC(=O)c1cc(C(=O)Nc2cc(C(F)(F)F)ccn2)ccc1-c1nc([C@@H]2CC[C@H]3CCC(=O)N3C2)n2ccnc(N)c12 | < 5.52 |  |  |
| Nc1nccn2c([C@H]3CN4C(=O)OC[C@@H]4CO3)nc(-c3ccc(C(=O)Nc4cc(C(F)(F)F)ccn4)cc3)c12 | 6.24 | 7.60 |  |
| Nc1nccn2c([C@@H]3CC[C@H]4CCCC(=O)N4C3)nc(-c3ccc(C(=O)Nc4cc(C(F)(F)F)ccn4)cc3F)c12 | 7.41 |  |  |
| Nc1nccn2c([C@@H]3CC[C@H]4CCC(=O)N4C3)nc(-c3ccc(C(=O)Nc4cc(C(F)(F)F)ccn4)cc3OC(F)(F)F)c12 | 7.13 | 8.00 |  |
| Nc1nccn2c([C@@H]3CC[C@H]4CCC(=O)N4C3)nc(-c3ccc(C(=O)Nc4cc(C(F)(F)F)ccn4)cc3C(F)(F)F)c12 | < 5.52 | < 6.00 |  |
| Nc1nccn2c([C@@H]3CC[C@H]4CCC(=O)N4C3)nc(-c3ccc(C(=O)Nc4cc(C(F)(F)F)ccn4)cc3OC3CC3)c12 |  |  | Vd [4]: 4.2 L/kg; bioavailability [5]: 14%; Tmax [6]: 3.5 h; AUC [7]: 1400 nM·h; clearance [8]: 2.52 L/h/kg; Cmax [9]: 0.14 µM; half-life [10]: 2.3 h |

Continued, in another order:

| pIC50 [1] | pIC50 [3] | SMILES | further results |
| --- | --- | --- | --- |
| 8.49 |  | C[C@H]1OC(=O)N2C[C@H](c3nc(-c4ccc(C(=O)Nc5cc(C(F)(F)F)ccn5)cc4)c4c(N)nccn34)CC[C@@H]12 | pIC50 [2]: 7.20 |
| 7.96 |  | Nc1nccn2c([C@@H]3CC[C@H]4CCC(=O)N4C3)nc(-c3ccc(C(=O)Nc4cc(C(F)(F)F)ccn4)cc3O)c12 |  |
| 8.40 |  | Nc1nccn2c([C@@H]3CC[C@H]4CCC(=O)N4C3)nc(-c3ccc(C(=O)Nc4cc(C(F)(F)F)ccn4)cc3F)c12 | pIC50 [2]: 7.00 |
| 8.31 | 9.89 | C[C@@H]1OC(=O)N2C[C@H](c3nc(-c4ccc(C(=O)Nc5cc(C(F)(F)F)ccn5)cc4)c4c(N)nccn34)CC[C@@H]12 | pIC50 [2]: 7.07 |
